In patent US9901578B2, “Combination of 10-propargyl-10-deazaaminopterin and erlotinib for the treatment of non-small cell lung cancer” (Allos Therapeutics, Inc., priority 2007, dated 2018):
Where “and” joins values, the source holds several entries; their conditions need not be identical. Identical values can stand only once. Entries after “also recorded” stand apart in the source; their conditions may differ. Like-named read-outs stand apart in the source and are kept apart here. Values belong to the molecule of their own block, whether it stands above or below them.

Tests used:
A549 cells = experiment: In vitro growth inhibition in A549 cells; type: cell-based, human
Method: The human non small lung carcinoma cell line A549 was purchased from the American Type Culture Collection (ATCC, Manassas, Va.). The cell line was cultured in Ham's F 12K medium with 2 mM L-glutamine 1.5 g/L sodium bicarbonate, supplemented with 10% fetal bovine serum and was maintained at 37° C. in a humidified atmosphere at 5% CO2 and 95% air.
An in vitro study in A549 cells was performed to compare the growth inhibition activity of PDX to that of cisplatin, paclitaxel, and docetaxel.

[1] = Method: To evaluate the doses to be tested in the xenograft mouse model, non-tumor bearing female athymice nu/nu mice were treated with 2 mg/kg of PDX alone and in combination with 50 mg/kg of Tarceva® as described in Table 1. Animals were monitored daily for routine health observation. Body weight of the animals was recorded daily during the treatment phase and thereafter twice weekly for 14 days after the last treatment).
A549 xenograft = A549 xenograft mouse model, tumor volume; type: in vivo, athymic nu/nu mice; conditions: for Effect on tumor growth: 35 days
Method: Xenotransplant of A549 was established by subcutaneous inoculation of 5×10^6 cells on the right flank using a 21G needle in 6-8 week female athymic nude mice. A total of 75 animals were injected with A549 xenotransplant. Tumor volume was monitored twice weekly, once the established tumor reached 75-150 mm^3 (individual tumor range between 70 to 200 mm^3) the mice were randomized to the different groups as described in Table 2.
Tumor volume and body weights were measured twice weekly up to 58 days following A549 inoculation. Tumor volume was calculated using the following formula: Tumor volume=(A^2×B/2) where A is the smallest diameter and B is the largest diameter.
The treatment was initiated on the day of randomization according to the schedule described in Table 2. PDX was administered via IP injection and Tarceva® by oral gavage. PBS and 0.5% CMC were administrated to Group 1 as control vehicles by IP and PO routes, respectively.
Statistical analysis was performed using Graphpad Prism software. Comparison between control group and treatment groups was performed using 2 way ANOVA analysis.

H460 cells = experiment: Short-term uptake of radiolabeled drug in H460 cells; type: cell-based, human; conditions: for Total uptake of radiolabeled drug: measured at 15 and 60 minutes, PDX, MTX 5 μM, Alimta 20 μM
[2] = test system: FPGS activity (polyglutamylation); experiment: Polyglutamylation of radiolabeled drug in H460 cells; type: cell-based, human; conditions: lysates of treated H460 cells; PDX, MTX 5 μM, Alimta 20 μM
human recombinant DHFR = molecular target: T1, human recombinant DHFR (Homo sapiens, UniProt P00374); experiment: DHFR inhibition in a cell-free assay; type: biochemical; conditions: read-out: Apparent Ki for DHFR inhibition
T1 sequence (P00374 1-187): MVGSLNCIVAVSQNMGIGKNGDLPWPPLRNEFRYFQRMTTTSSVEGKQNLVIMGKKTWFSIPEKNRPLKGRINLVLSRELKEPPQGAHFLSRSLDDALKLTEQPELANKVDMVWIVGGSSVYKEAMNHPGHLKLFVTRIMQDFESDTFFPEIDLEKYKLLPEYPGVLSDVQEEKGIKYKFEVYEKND
Description: (§1) Endpoints included mean tumor growth inhibition or regression. We further evaluated activity and/or expression of folate-dependent enzymes: DHFR, thymidylate synthase (TS), and folylpolyglutamate synthase (FPGS) using kinetic assays and immunostaining in tumors harvested at the end of the study from animals treated with the antifolates or vehicle controls. In vitro studies included evaluation of reduced folate carrier (RFC) expression by quantitative RT-PCR in MV522, and H460, xenograft models. […] Inhibition of DHFR by the three antifolates was quantified in a cell-free assay against human recombinant DHFR.

H460 xenografts = experiment: H460 non-small cell lung carcinoma human tumor xenograft; type: in vivo; conditions: PDX 1 mg/kg and 2 mg/kg
Description: as §1

MV522 xenografts = experiment: MV522 non-small cell lung carcinoma human tumor xenograft; type: in vivo; conditions: PDX 1 mg/kg and 2 mg/kg
Description: as §1

[3] = test system: TS enzymatic activity and protein expression, and DHFR protein content; experiment: Activity/expression of folate-dependent enzymes in harvested tumors; type: in vivo; conditions: H460 and MV522 tumor xenografts
Description: as §1

- IC50 (A549 cells; Homo sapiens): 23.6 nM
SMILES: CC(=O)O[C@@]12CO[C@@H]1C[C@H](O)[C@@]1(C)C(=O)[C@H](O)C3=C(C)[C@@H](OC(=O)[C@H](O)[C@@H](NC(=O)OC(C)(C)C)c4ccccc4)C[C@@](O)([C@@H](OC(=O)c4ccccc4)[C@H]21)C3(C)C [Docetaxel]

SMILES: C#Cc1cccc(Nc2ncnc3cc(OCCOC)c(OCCOC)cc23)c1 [Tarceva, [6,7-bis(2-methoxyethoxy)-4-quinazolin-4-yl]-(3-ethynylphenyl)amine, reference compound]
- Tolerability ([1]; mouse, in vivo): well tolerated
- Effect on tumor growth (A549 xenograft; Tarceva 50 mg/kg PO): did not control tumor growth
- Tumor volume Avg ± SD (A549 xenograft; Tarceva 50 mg/kg PO, day 0): 131 ± 47. mm^3
- Tumor volume Avg ± SD (A549 xenograft; Tarceva 50 mg/kg PO, day 3): 166 ± 80. mm^3
- Tumor volume Avg ± SD (A549 xenograft; Tarceva 50 mg/kg PO, day 7): 216 ± 121 mm^3
- Tumor volume Avg ± SD (A549 xenograft; Tarceva 50 mg/kg PO, day 10): 214 ± 140 mm^3
- Tumor volume Avg ± SD (A549 xenograft; Tarceva 50 mg/kg PO, day 14): 249 ± 130 mm^3
- Tumor volume Avg ± SD (A549 xenograft; Tarceva 50 mg/kg PO, day 17): 271 ± 206 mm^3
- Tumor volume Avg ± SD (A549 xenograft; Tarceva 50 mg/kg PO, day 21): 270 ± 210 mm^3
- Tumor volume Avg ± SD (A549 xenograft; Tarceva 50 mg/kg PO, day 24): 294 ± 261 mm^3
- Tumor volume Avg ± SD (A549 xenograft; Tarceva 50 mg/kg PO, day 28): 308 ± 280 mm^3
- Tumor volume Avg ± SD (A549 xenograft; Tarceva 50 mg/kg PO, day 35): 358±282 mm^3 and 357 ± 282 mm^3

SMILES: CN(Cc1cnc2nc(N)nc(N)c2n1)c1ccc(C(=O)N[C@@H](CCC(=O)O)C(=O)O)cc1 [MTX, methotrexate]
- Fraction of radiolabeled drug that entered the cells (H460 cells; in comparison with PDX or Alimta): significantly smaller fraction
- Polyglutamylation [2]: much lesser polyglutamylation

SMILES: N.N.[Cl][Pt][Cl] [Cisplatin]
- IC50 (A549 cells): 22.4 nM

- IC50 (A549 cells; Homo sapiens): 109 nM
SMILES: CC(=O)O[C@H]1C(=O)[C@@]2(C)[C@H]([C@H](OC(=O)c3ccccc3)[C@]3(O)C[C@H](OC(=O)[C@H](O)[C@@H](NC(=O)c4ccccc4)c4ccccc4)C(C)=C1C3(C)C)[C@]1(OC(C)=O)CO[C@@H]1C[C@@H]2O [Paclitaxel]

SMILES: Nc1nc2[nH]cc(CCc3ccc(C(=O)N[C@@H](CCC(=O)O)C(=O)O)cc3)c2c(=O)[nH]1 [Alimta, pemetrexed]
- Total uptake of radiolabeled drug (H460 cells): decreased later
- Polyglutamylation [2]: much lesser polyglutamylation

SMILES: C#CCC(Cc1cnc2nc(N)nc(N)c2n1)c1ccc(C(=O)N[C@@H](CCC(=O)O)C(=O)O)cc1 (stereo partly shown) [PDX, 10-Propargyl-10-deazaaminopterin]
- IC50 (A549 cells; Homo sapiens): 65.1 nM
- Tolerability ([1]; PDX 2 mg/kg IP QDx5 two cycles, Tarceva 50 mg/kg PO QDx21, alone or combined): well tolerated
- Effect on tumor growth (A549 xenograft; PDX 1 mg/kg IP QDx5 two cycles): a trend in reducing tumor growth; also recorded: a trend toward controlling tumor growth
- Tumor volume Avg ± SD (A549 xenograft; PDX 1 mg/kg IP QDx5 two cycles, day 0): 132 ± 52. mm^3
- Tumor volume Avg ± SD (A549 xenograft; PDX 1 mg/kg IP QDx5 two cycles, day 3): 148 ± 67. mm^3
- Tumor volume Avg ± SD (A549 xenograft; PDX 1 mg/kg IP QDx5 two cycles, day 7): 176 ± 87. mm^3
- Tumor volume Avg ± SD (A549 xenograft; PDX 1 mg/kg IP QDx5 two cycles, day 10): 158 ± 93. mm^3
- Tumor volume Avg ± SD (A549 xenograft; PDX 1 mg/kg IP QDx5 two cycles, day 14): 199 ± 79. mm^3
- Tumor volume Avg ± SD (A549 xenograft; PDX 1 mg/kg IP QDx5 two cycles, day 17): 190 ± 78. mm^3
- Tumor volume Avg ± SD (A549 xenograft; PDX 1 mg/kg IP QDx5 two cycles, day 21): 179 ± 112 mm^3
- Tumor volume Avg ± SD (A549 xenograft; PDX 1 mg/kg IP QDx5 two cycles, day 24): 191 ± 105 mm^3
- Tumor volume Avg ± SD (A549 xenograft; PDX 1 mg/kg IP QDx5 two cycles, day 28): 201 ± 114 mm^3
- Tumor volume Avg ± SD (A549 xenograft; PDX 1 mg/kg IP QDx5 two cycles, day 35): 224±128 mm^3
- Effect on tumor growth (A549 xenograft; PDX 2 mg/kg IP QDx5 two cycles): a trend in reducing tumor growth; also recorded: a trend toward controlling tumor growth; also recorded: inhibited the growth of the A549 xenografts
- Tumor volume Avg ± SD (A549 xenograft; PDX 2 mg/kg IP QDx5 two cycles, day 0): 131 ± 49. mm^3
- Tumor volume Avg ± SD (A549 xenograft; PDX 2 mg/kg IP QDx5 two cycles, day 3): 133 ± 60. mm^3
- Tumor volume Avg ± SD (A549 xenograft; PDX 2 mg/kg IP QDx5 two cycles, day 7): 166 ± 75. mm^3
- Tumor volume Avg ± SD (A549 xenograft; PDX 2 mg/kg IP QDx5 two cycles, day 10): 139 ± 70. mm^3
- Tumor volume Avg ± SD (A549 xenograft; PDX 2 mg/kg IP QDx5 two cycles, day 14): 207 ± 100 mm^3
- Tumor volume Avg ± SD (A549 xenograft; PDX 2 mg/kg IP QDx5 two cycles, day 17): 174 ± 104 mm^3
- Tumor volume Avg ± SD (A549 xenograft; PDX 2 mg/kg IP QDx5 two cycles, day 21): 194 ± 114 mm^3
- Tumor volume Avg ± SD (A549 xenograft; PDX 2 mg/kg IP QDx5 two cycles, day 24): 194 ± 101 mm^3
- Tumor volume Avg ± SD (A549 xenograft; PDX 2 mg/kg IP QDx5 two cycles, day 28): 189 ± 106 mm^3
- Tumor volume Avg ± SD (A549 xenograft; PDX 2 mg/kg IP QDx5 two cycles, day 35): 210±109 mm^3
- Ki (human recombinant DHFR): 45 nM
- Tumor growth (H460 xenografts): dose-dependently inhibited tumor growth
- Tumor growth (MV522 xenografts): dose-dependently inhibited tumor growth
- Effect on TS enzymatic activity and protein expression, and DHFR protein content [3]: down-regulated most of these endpoints
- Total uptake of radiolabeled drug (H460 cells): increased over time
- Polyglutamylation [2]: greater polyglutamylation
